{"source": "ChEMBL document CHEMBL2086273", "about": "“Significant activity of ecdysteroids on the resistance to doxorubicin in mammalian cancer cells expressing the human ABCB1 transporter” (J Med Chem, 2012)", "assay_type_in_all_cases": "cell-based", "key": {"[1]": {"target": "T1, ATP-dependent translocase ABCB1 (Homo sapiens, UniProt P08183)", "T1 sequence (P08183 whole entry)": "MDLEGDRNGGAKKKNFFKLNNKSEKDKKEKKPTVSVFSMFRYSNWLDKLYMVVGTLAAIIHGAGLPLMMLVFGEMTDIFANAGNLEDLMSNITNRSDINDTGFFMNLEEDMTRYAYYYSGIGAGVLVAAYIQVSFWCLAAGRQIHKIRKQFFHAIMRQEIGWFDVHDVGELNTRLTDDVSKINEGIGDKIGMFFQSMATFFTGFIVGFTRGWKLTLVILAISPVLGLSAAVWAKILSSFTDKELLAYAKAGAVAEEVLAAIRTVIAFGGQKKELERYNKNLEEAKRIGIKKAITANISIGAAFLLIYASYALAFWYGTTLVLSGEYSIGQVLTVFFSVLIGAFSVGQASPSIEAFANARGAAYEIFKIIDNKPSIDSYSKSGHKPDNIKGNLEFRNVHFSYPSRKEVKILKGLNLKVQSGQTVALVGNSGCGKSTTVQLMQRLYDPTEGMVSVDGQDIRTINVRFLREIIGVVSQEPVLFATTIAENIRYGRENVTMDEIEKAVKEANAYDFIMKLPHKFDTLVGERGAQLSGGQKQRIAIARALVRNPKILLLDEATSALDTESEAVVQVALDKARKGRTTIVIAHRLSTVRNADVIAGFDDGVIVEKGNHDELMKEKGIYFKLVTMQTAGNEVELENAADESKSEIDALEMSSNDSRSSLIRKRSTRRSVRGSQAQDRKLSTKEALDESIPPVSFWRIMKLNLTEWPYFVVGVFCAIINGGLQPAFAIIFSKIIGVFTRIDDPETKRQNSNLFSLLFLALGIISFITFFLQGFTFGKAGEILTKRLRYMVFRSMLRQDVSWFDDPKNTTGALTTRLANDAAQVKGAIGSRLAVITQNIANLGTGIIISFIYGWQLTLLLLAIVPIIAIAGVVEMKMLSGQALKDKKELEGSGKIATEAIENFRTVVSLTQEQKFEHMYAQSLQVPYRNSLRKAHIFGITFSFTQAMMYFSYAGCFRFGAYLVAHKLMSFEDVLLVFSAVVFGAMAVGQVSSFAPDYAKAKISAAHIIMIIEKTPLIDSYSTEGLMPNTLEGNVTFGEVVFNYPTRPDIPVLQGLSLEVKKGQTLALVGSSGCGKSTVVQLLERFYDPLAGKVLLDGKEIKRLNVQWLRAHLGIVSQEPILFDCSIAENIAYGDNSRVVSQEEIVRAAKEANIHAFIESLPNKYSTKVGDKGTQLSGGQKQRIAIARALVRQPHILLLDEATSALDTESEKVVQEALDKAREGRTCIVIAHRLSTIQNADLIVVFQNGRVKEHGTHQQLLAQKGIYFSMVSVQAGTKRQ", "experiment": "Inhibition of human ABCB1 pump expressed in mouse L5178 cells assessed as fluorescence activity ratio at 20 uM for 10 mins by flow cytometry relative to control", "conditions": "l5178, 10 min"}, "[2]": {"target": "T1, ATP-dependent translocase ABCB1", "experiment": "Inhibition of human ABCB1 expressed in mouse L5178 cells assessed as 50% inhibition of cell proliferation at compound-doxorubicin ratio of 40.8:1 after 48 hrs by MTT assay", "conditions": "l5178, 48 h"}, "[3]": {"target": "T1, ATP-dependent translocase ABCB1", "experiment": "Inhibition of human ABCB1 expressed in mouse L5178 cells assessed as 75% inhibition of cell proliferation at compound-doxorubicin ratio of 40.8:1 after 48 hrs by MTT assay", "conditions": "l5178, 48 h"}, "[4]": {"target": "T1, ATP-dependent translocase ABCB1", "experiment": "Inhibition of human ABCB1 expressed in mouse L5178 cells assessed as 95% inhibition of cell proliferation at compound-doxorubicin ratio of 40.8:1 after 48 hrs by MTT assay", "conditions": "l5178, 48 h"}, "[5]": {"target": "T1, ATP-dependent translocase ABCB1", "experiment": "Inhibition of human ABCB1 expressed in mouse L5178 cells assessed as 50% inhibition of cell proliferation at compound-doxorubicin ratio of 20.4:1 after 48 hrs by MTT assay", "conditions": "l5178, 48 h"}, "[6]": {"target": "T1, ATP-dependent translocase ABCB1", "experiment": "Inhibition of human ABCB1 expressed in mouse L5178 cells assessed as 75% inhibition of cell proliferation at compound-doxorubicin ratio of 20.4:1 after 48 hrs by MTT assay", "conditions": "l5178, 48 h"}, "[7]": {"target": "T1, ATP-dependent translocase ABCB1", "experiment": "Inhibition of human ABCB1 expressed in mouse L5178 cells assessed as 95% inhibition of cell proliferation at compound-doxorubicin ratio of 20.4:1 after 48 hrs by MTT assay", "conditions": "l5178, 48 h"}}}
{"smiles": "CC(=O)O[C@H]1C[C@@]2(C)[C@@H](C[C@H]1OC(C)=O)C(=O)C=C1[C@@H]2CC[C@]2(C)[C@@H]([C@@](C)(O)[C@@H](CCC(C)(C)O)OC(C)=O)CC[C@@]12O", "values": [{"measurement": "Ratio", "setting": "[1]", "value": 1.25}, {"measurement": "fractional inhibitory concentration index (FICI)", "setting": "[2]", "value": 1.26}, {"measurement": "fractional inhibitory concentration index (FICI)", "setting": "[3]", "value": 0.91}, {"measurement": "fractional inhibitory concentration index (FICI)", "setting": "[4]", "value": 0.7}]}
{"smiles": "CC(O)(CO)CC[C@H]1OC(C)(C)O[C@]1(C)[C@H]1CC[C@@]2(O)C3=CC(=O)[C@]4(O)C[C@@H](O)[C@@H](O)C[C@]4(C)[C@H]3CC[C@]12C", "note": "(some centres not stated)", "values": [{"measurement": "Ratio", "setting": "[1]", "value": 13.32}, {"measurement": "fractional inhibitory concentration index (FICI)", "setting": "[2]", "value": 0.42}, {"measurement": "fractional inhibitory concentration index (FICI)", "setting": "[3]", "value": 0.16}, {"measurement": "fractional inhibitory concentration index (FICI)", "setting": "[4]", "value": 0.062}]}
{"smiles": "C=C(C)CC[C@@H](O)[C@](C)(O)[C@H]1CC[C@@]2(O)C3=CC(=O)[C@@H]4C[C@@H](O)[C@@H](O)C[C@]4(C)C3=CC[C@]12C", "values": [{"measurement": "Ratio", "setting": "[1]", "value": 1.43}, {"measurement": "fractional inhibitory concentration index (FICI)", "setting": "[2]", "value": 1.75}, {"measurement": "fractional inhibitory concentration index (FICI)", "setting": "[3]", "value": 0.85}, {"measurement": "fractional inhibitory concentration index (FICI)", "setting": "[4]", "value": 0.43}]}
{"smiles": "CC(C)[C@@H](O)C[C@@H](O)[C@](C)(O)[C@H]1CC[C@@]2(O)C3=CC(=O)[C@@H]4C[C@@H](O)[C@@H](O)C[C@]4(C)[C@H]3CC[C@]12C", "note": "[PTEROSTERONE]", "values": [{"measurement": "Ratio", "setting": "[1]", "value": 0.56}, {"measurement": "fractional inhibitory concentration index (FICI)", "setting": "[2]", "value": 1.32}, {"measurement": "fractional inhibitory concentration index (FICI)", "setting": "[3]", "value": 0.84}, {"measurement": "fractional inhibitory concentration index (FICI)", "setting": "[4]", "value": 0.54}]}
{"smiles": "CC[C@H](C[C@@H](O)[C@](C)(O)[C@H]1CC[C@@]2(O)C3=CC(=O)[C@@H]4C[C@@H](O)[C@@H](O)C[C@]4(C)[C@H]3CC[C@]12C)C(C)(C)O", "note": "[MAKISTERONE C]", "values": [{"measurement": "Ratio", "setting": "[1]", "value": 0.66}, {"measurement": "fractional inhibitory concentration index (FICI)", "setting": "[2]", "value": 0.98}, {"measurement": "fractional inhibitory concentration index (FICI)", "setting": "[3]", "value": 0.42}, {"measurement": "fractional inhibitory concentration index (FICI)", "setting": "[4]", "value": 0.2}]}
{"smiles": "CC(C)CC[C@H]1OC(C)(C)O[C@]1(C)[C@H]1CC[C@@]2(O)C3=CC(=O)[C@@H]4C[C@H]5OC(C)(C)O[C@H]5C[C@]4(C)[C@H]3[C@H](O)C[C@]12C", "values": [{"measurement": "Ratio", "setting": "[1]", "value": 46.49}, {"measurement": "fractional inhibitory concentration index (FICI)", "setting": "[5]", "value": 0.18}, {"measurement": "fractional inhibitory concentration index (FICI)", "setting": "[6]", "value": 0.14}, {"measurement": "fractional inhibitory concentration index (FICI)", "setting": "[7]", "value": 0.12}]}
{"smiles": "CC(C)(O)CC[C@@H](O)[C@](C)(O)[C@H]1CC[C@@]2(O)C3=CC(=O)[C@]4(O)C[C@@H](O)[C@@H](O)C[C@]4(C)[C@H]3CC[C@]12C", "note": "[POLYPODINE B]", "values": [{"measurement": "Ratio", "setting": "[1]", "value": 0.77}, {"measurement": "fractional inhibitory concentration index (FICI)", "setting": "[5]", "value": 1.11}, {"measurement": "fractional inhibitory concentration index (FICI)", "setting": "[6]", "value": 0.8}, {"measurement": "fractional inhibitory concentration index (FICI)", "setting": "[7]", "value": 0.58}]}
{"smiles": "C[C@]12C[C@H](O)[C@H](O)C[C@H]1C(=O)C=C1[C@@H]2CC[C@]2(C)C(=O)CC[C@@]12O", "note": "[RUBROSTERONE]", "values": [{"measurement": "Ratio", "setting": "[1]", "value": 0.89}, {"measurement": "fractional inhibitory concentration index (FICI)", "setting": "[2]", "value": 1.12}, {"measurement": "fractional inhibitory concentration index (FICI)", "setting": "[3]", "value": 0.65}, {"measurement": "fractional inhibitory concentration index (FICI)", "setting": "[4]", "value": 0.41}]}
{"smiles": "CC(C)CC[C@H]1OC(C)(C)O[C@]1(C)[C@H]1CC[C@@]2(O)C3=CC(=O)[C@@H]4C[C@H]5OC(C)(C)O[C@H]5C[C@]4(C)C3=CC[C@]12C", "values": [{"measurement": "Ratio", "setting": "[1]", "value": 41.15}, {"measurement": "fractional inhibitory concentration index (FICI)", "setting": "[5]", "value": 0.19}, {"measurement": "fractional inhibitory concentration index (FICI)", "setting": "[6]", "value": 0.14}, {"measurement": "fractional inhibitory concentration index (FICI)", "setting": "[7]", "value": 0.1}]}
{"smiles": "CC(C)(O)CC[C@H]1OC(C)(C)O[C@]1(C)[C@H]1CC[C@@]2(O)C3=CC(=O)[C@@H]4C[C@@H](O)CC[C@]4(C)[C@H]3CC[C@]12C", "values": [{"measurement": "Ratio", "setting": "[1]", "value": 7.01}, {"measurement": "fractional inhibitory concentration index (FICI)", "setting": "[5]", "value": 0.88}, {"measurement": "fractional inhibitory concentration index (FICI)", "setting": "[6]", "value": 0.28}, {"measurement": "fractional inhibitory concentration index (FICI)", "setting": "[7]", "value": 0.091}]}
{"smiles": "CC(=O)O[C@H]1CC[C@@]2(C)[C@@H](C1)C(=O)C=C1[C@@H]2CC[C@]2(C)[C@@H]([C@H](C)[C@@H](CCC(C)(C)O)OC(C)=O)CC[C@@]12O", "values": [{"measurement": "Ratio", "setting": "[1]", "value": 0.97}, {"measurement": "fractional inhibitory concentration index (FICI)", "setting": "[5]", "value": 1.5}, {"measurement": "fractional inhibitory concentration index (FICI)", "setting": "[6]", "value": 0.86}, {"measurement": "fractional inhibitory concentration index (FICI)", "setting": "[7]", "value": 0.5}]}
{"smiles": "CC(=O)O[C@H]1C[C@]2(C)[C@H]3CC[C@]4(C)[C@@H]([C@@](C)(O)[C@@H](CCC(C)(C)O)OC(C)=O)CC[C@@]4(O)C3=CC(=O)[C@]2(O)C[C@H]1OC(C)=O", "values": [{"measurement": "Ratio", "setting": "[1]", "value": 47.95}, {"measurement": "fractional inhibitory concentration index (FICI)", "setting": "[2]", "value": 0.35}, {"measurement": "fractional inhibitory concentration index (FICI)", "setting": "[3]", "value": 0.3}, {"measurement": "fractional inhibitory concentration index (FICI)", "setting": "[4]", "value": 0.26}]}
{"smiles": "C=C(C)C(C[C@@H](O)[C@](C)(O)[C@H]1CC[C@@]2(O)C3=CC(=O)[C@]4(O)C[C@@H](O)[C@@H](O)C[C@]4(C)[C@H]3CC[C@]12C)C(C)O", "note": "(some centres not stated) [AJUGASTERONE B]", "values": [{"measurement": "Ratio", "setting": "[1]", "value": 0.7}, {"measurement": "fractional inhibitory concentration index (FICI)", "setting": "[2]", "value": 1.21}, {"measurement": "fractional inhibitory concentration index (FICI)", "setting": "[3]", "value": 0.59}, {"measurement": "fractional inhibitory concentration index (FICI)", "setting": "[4]", "value": 0.3}]}
